Patent US5574057A, “Naamidine A extracted from sea sponges and methods for its use as an anti-tumor agent” (priority 1994, dated 1996)
“Also recorded” adds a separate entry of the source.

Assays:
c-src tyrosine kinase = c-src tyrosine kinase (Homo sapiens, UniProt P12931); assay: c-src tyrosine kinase assay (phosphorylation of RCM lysozyme); type: biochemical; details: isolated c-src, RCM lysozyme substrate, 30 minutes
Description: Experimental Test 5. […] In this assay, phosphorylation of the substrate RCM (reduced, carboxyamidomethylated and maleylated) lysozyme by c-src is quantified using a peroxidase-linked anti-phosphotyrosine antibody to determine the activity of this kinase.
The sample of naamidine A was incubated with the substrate RCM […], c-src enzyme, and ATP for 30 minutes, after which time the reaction was terminated and tyrosine phosphorylation was assessed using a peroxidase-linked antiphosphotyrosine antibody.

[1] = test system: insulin stimulation of EC25 cells; assay: EGF mitogenic assay (3H-thymidine incorporation), insulin stimulation as nonspecific mitogen control; type: cell-based; details: pure sample
Description: (§1) An in vitro bioassay, called the EGF mitogenic assay, was used to aid in the identification of antagonists of EGF dependent cell proliferation. The mitogenic response due to EGF is quantified by measuring the incorporation of ^3 H-thymidine into NIH3T3 cells (or "EC25 cells") that have been transfected with the EGF receptor gene. Stimulation of these cells with insulin is used as a "nonspecific" mitogen control. Samples were preincubated with the EC25 cells for one hour before the addition of the mitogen, then further incubated for 16 hours, and mitogenic stimulation assessed by a one hour incorporation of ^3 H-thymidine. The development of the EC25 cell line, and the EGF mitogenic assay in which it is used, is explained in greater detail in Velu, T. J. et al., "Epidermal Growth Factor-Dependent Transformation by a Human EGF Receptor Proto-Oncogene, " Science 238:1408-10 (1987).
(§2) The concentration at which control insulin stimulation is inhibited 50% by the test sample (IC50(insutin)) was calculated as was the same value for EGF (IC50(EGF)). These values were then used to calculate a specificity ratio which is IC50(insulin)/ IC50(EGF).

[2] = test system: EGF-induced mitogenesis in EC25 cells (NIH3T3 cells transfected with the EGF receptor gene); assay: EGF mitogenic assay (3H-thymidine incorporation), EGF stimulation; type: cell-based, human
From the text: The assay to determine a compound's selectivity compares the level of inhibition of the targeted activity (EGF stimulation of cell growth) with the inhibition of insulin stimulated cell growth.
as §1, §2
These activity criteria help determine which inhibitors are specific for the EGF signalling pathway.

EGF receptor = assay: competition with binding of biotinylated EGF to A431 cells; parameters: species or system human; details: up to 500 μg/ml
Description: Experimental Test 4. Presently, the mechanism of action of naamidine A for inhibition of the EGF signalling pathway is unknown. […] This assay measured the ability of naamidine A to compete with the binding of biotinylated EGF to the EGF receptor, which is highly over expressed in A431 human squamous cell carcinoma cells.
In the assay represented in FIG. 3, the A431 cells were incubated in the presence of either the EGF standard or naamidine A plus biotinylated EGF for one hour and the degree of inhibition of biotinylated EGF binding to the EGF receptor was quantified using a peroxidase-linked anti-biotin antibody. The solid circles (.circle-solid.) in FIG. 3 represent the level of binding of EGF to cell receptors when the cells are subjected to various levels of naamidine A. The open circles (.largecircle.) represent the level of binding of EGF to cell receptors when the cells are subjected to various levels of EGF, which is used as a positive control.

[3] = test system: human squamous cell carcinoma (A431); assay: first in vivo test, A431 xenograft in athymic mice, assessed 15 days after implantation (Experimental Test 7); parameters: species or system human tumor in athymic mice; details: for % Inhibition of tumor growth: q1d×5;1, 15 days; for toxicity: 100 mg/kg
Description: Tumor growth was assessed by measuring the change in tumor size over a fifteen day period. Although naamidine A inhibited tumor growth, the inhibition was a modest 37%. Therefore, a second evaluation was carried out using a different schedule of treatment and evaluation.
J. Oncology, 1:293-298 (1992).
Tumor growth was calculated as FTS/ITS. […] Experimental Test 7.
The effect of naamidine A on the tumor was assessed 15 days after tumor implantation and there were six mice per treatment group.

[4] = test system: human squamous cell carcinoma (A431); assay: second in vivo test, A431 xenograft in athymic mice, assessed 7 days after implantation (Experimental Test 8); details: for % Inhibition of tumor growth: q1d×5;1, 7 days; for deaths: q1d×5;1, six mice per group
Description: In this test, the mice were treated with varying dosages of naamidine A for five days after implantation of the carcinoma. The tumors were then evaluated for growth activity seven days after implantation, as determined by the change in tumor size.
The model system used for these in vivo studies was a human squamous cell carcinoma (A431) that over expresses the EGF receptor, which was implanted into athymic mice.
According to Robinson et al., the A431 cell line was adapted to grow in female athymic mice by s.c. inoculation of 10^7 cultured cells into the axillary region. Tumors were passaged in female athymic mice by sterile dissection of solid tumors and s.c. implantation of tumor fragments into the axillary region.
Drug effects were calculated as the mean % inhibition the drug treatment produced on tumor growth when compared to control. Inhibition of >80% of tumor growth was considered a working criteria for "active".
In this second in vivo test, the length of time for tumor growth was shortened to seven days to more closely coincide with the time of drug treatment. Two groups of twelve mice each were treated with the standard antibody (MA225), while there were six mice per group treated with varying doses of naamidine A.
The tumor was exposed to the test agent (naamidine A) once a day for 5 days (q1 d×5; 1), which was nearly the entire length of the growth period of 7 days. During this time, the tumor would normally be expected to double about 1.5 times instead of 3 times for a 15 day period.
Under these conditions, doses ranging from 0.78 mg/kg to 50 mg/kg were given using the same dosing schedule as with the first experiment.

[5] = 25 mg/kg, listed as Naamidine A

Description for HCT116 colon cells: In the XTT assay, cells are plated at 4000 cells/well in 96 well microtiter plates; 24 hours later the test drugs are added and serially diluted. The cells are incubated at 37° C. for 72 hours, at which time the tetrazolium dye, XTT, is added. A dehydrogenase enzyme in live cells reduces the XTT to a form that absorbs light at 450 nm which can be quantitated spectrophotometrically. The greater the absorbance the greater the number of live cells. The results are expressed as an IC50 which is the drug concentration required to inhibit cell proliferation (i.e., absorbance at 450 nm) to 50% of that of untreated control cells.

## naamidine A
c-src tyrosine kinase
  inhibition of c-src tyrosine kinase activity (in words): lack of c-src tyrosine kinase activity; also recorded: not inhibit the activity of the isolated c-src tyrosine kinase; also recorded: no significant inhibition of c-src tyrosine kinase activity
[1]
  IC50(insulin): 105.6 µg/mL
[2]; EC25 cells
  activity in the EGF assay (in words): very good activity
[2]; EC25 cells, EGF stimulation, pure sample
  IC50(EGF): 4.8 µg/mL
[2]; EC25 cells, specificity ratio
  IC50(insulin)/IC50(EGF) ratio: 22
[2]; tritiated thymidine incorporation after EGF or insulin stimulation
  specificity for EGF versus insulin stimulated response (in words): less potent in inhibiting insulin stimulated cell proliferation compared to EGF stimulated growth; also recorded: more specific for the EGF mediated mitogenic response than for the insulin mediated mitogenic response
[2]; tritiated thymidine incorporation, preliminary testing
  selectivity in inhibiting EGF dependent growth relative to insulin dependent growth: about 22 times
EGF receptor
  effect on binding of EGF to its receptor: does not appear to affect the binding of EGF to its corresponding receptor cite; also recorded: did not appear to effect the binding of EGF to receptor sites
HCT116 colon cells
  general in vitro cytotoxicity (in words): relatively low general in vitro cytotoxicity
HCT116 colon cells; HCT116, XTT, 72 hours
  IC50: 31 µg/mL
[3]; 1.6 mg/kg
  % Inhibition of tumor growth: 36.6%
[3]; 6.25 mg/kg
  % Inhibition of tumor growth: 32.2%
[3]; 25 mg/kg
  % Inhibition of tumor growth: 37%
[3]; [5]
  % Inhibition of tumor growth: 37.1%
[3]; first in vivo test, 15 days, includes period of regrowth
  net reduction in tumor cell growth: 30-40%
[3]; mice, q1d×5;1
  toxicity: toxic to the mice
[3]; mice, q1d×5;1, listed as Naamidine A
  toxicity: toxic (multiple deaths)
[3]; mice, q1d×5;1, 21600 min
  maximally tolerated dose: 25 mg/kg
[4]; 1.56 mg/kg
  % Inhibition of tumor growth: 47.9%
[4]; 3.13 mg/kg
  % Inhibition of tumor growth: 35%
[4]; 6.25 mg/kg
  % Inhibition of tumor growth: -7.5%
[4]; 12.5 mg/kg
  % Inhibition of tumor growth: 52%
[4]; 25 mg/kg
  % Inhibition of tumor growth: at least 85%
[4]; [5]
  % Inhibition of tumor growth: 87.4%
[4]; 50 mg/kg
  % Inhibition of tumor growth: 96.4%
[4]; mice, 25 mg/kg
  deaths (in words): death of one mouse
  deaths: 1 death
[4]; mice, 50 mg/kg
  toxicity (in words): toxic to many of the mice
  deaths: 2 deaths
[4]; mice, q1d×5;1, 10080 min
  maximal tolerated dose: 25 mg/kg
[4]; mice, q1d×5;1, roughly estimated from Experimental Test 8
  LD-10 (dose at which 10% of the mice died): about 25 mg/kg
[4]; somewhat toxic doses, 7 days, best results at about 25 mg/kg
  Tumor growth inhibition: about 85%
